In US20120264735A1 (priority 2009, published 2012):

Biological target: T1, c-Met kinase (recombinant c-Met) (Homo sapiens, UniProt P08581)
T1 construct: 0.27 nM recombinant c-Met
Experiment: In vitro kinase assay I (homogeneous time-resolved fluorescence tyrosine kinase assay)
Format: biochemical
Outline: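 Biotinylated peptide (0.5 μM) phosphorylated by 0.2 nM recombinant c-Met with 50 μM MgATP, 60 min at room temperature, pH 7.4, 5% DMSO. EDTA stop; HTRF read with Eu-anti-phosphotyrosine antibody and streptavidin-APC. IC50 from 4-parameter logistic fit.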

T1 sequence (P08581 25-1390): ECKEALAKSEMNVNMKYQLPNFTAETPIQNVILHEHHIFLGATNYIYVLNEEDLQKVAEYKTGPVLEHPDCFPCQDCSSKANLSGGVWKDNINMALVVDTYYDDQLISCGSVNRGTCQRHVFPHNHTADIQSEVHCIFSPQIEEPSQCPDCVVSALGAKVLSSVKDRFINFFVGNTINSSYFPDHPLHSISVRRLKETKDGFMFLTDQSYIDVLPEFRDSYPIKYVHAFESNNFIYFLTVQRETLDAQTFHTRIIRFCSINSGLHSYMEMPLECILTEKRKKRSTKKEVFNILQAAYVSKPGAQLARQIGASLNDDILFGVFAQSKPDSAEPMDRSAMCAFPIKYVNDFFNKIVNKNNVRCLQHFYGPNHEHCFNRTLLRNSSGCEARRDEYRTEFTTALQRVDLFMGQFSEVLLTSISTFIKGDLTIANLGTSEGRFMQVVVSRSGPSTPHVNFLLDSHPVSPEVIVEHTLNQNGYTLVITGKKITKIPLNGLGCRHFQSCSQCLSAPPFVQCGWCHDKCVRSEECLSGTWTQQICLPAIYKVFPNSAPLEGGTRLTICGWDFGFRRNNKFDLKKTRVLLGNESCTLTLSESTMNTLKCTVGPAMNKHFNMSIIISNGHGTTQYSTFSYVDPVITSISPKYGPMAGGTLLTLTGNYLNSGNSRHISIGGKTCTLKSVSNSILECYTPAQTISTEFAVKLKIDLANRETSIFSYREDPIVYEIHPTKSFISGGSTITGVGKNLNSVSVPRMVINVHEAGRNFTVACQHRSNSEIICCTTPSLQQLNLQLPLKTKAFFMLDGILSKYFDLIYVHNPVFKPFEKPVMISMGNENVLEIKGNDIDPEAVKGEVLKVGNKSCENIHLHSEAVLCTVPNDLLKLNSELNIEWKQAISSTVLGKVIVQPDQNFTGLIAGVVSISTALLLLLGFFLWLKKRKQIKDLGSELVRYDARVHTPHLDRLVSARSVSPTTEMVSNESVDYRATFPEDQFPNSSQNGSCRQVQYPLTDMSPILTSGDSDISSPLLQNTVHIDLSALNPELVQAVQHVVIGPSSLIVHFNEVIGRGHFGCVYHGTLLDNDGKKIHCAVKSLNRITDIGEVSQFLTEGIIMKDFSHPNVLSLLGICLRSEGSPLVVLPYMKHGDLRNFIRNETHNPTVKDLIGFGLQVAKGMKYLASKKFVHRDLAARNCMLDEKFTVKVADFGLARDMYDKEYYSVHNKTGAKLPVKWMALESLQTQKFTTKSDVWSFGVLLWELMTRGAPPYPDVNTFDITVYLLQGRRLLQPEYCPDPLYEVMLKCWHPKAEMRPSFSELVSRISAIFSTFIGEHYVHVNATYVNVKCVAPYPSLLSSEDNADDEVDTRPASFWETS

| IC50 [nM] | Compound |
| --- | --- |
| < 100 | Cn1cc(-n2ccc(=O)c(Cc3cccc(-c4ncc(OCC5(F)CCOCC5)cn4)c3)n2)cn1 [Example 388, 3-(3-{5-[(4-fluorotetrahydro-2H-pyran-4-yl)methoxy]pyrimidin-2-yl}benzyl)-1-(1-methyl-1H-pyrazol-4-yl)pyridazin-4(1H)-one] |
| < 100 | CCc1cnc(-c2cccc(Cc3nn(-c4cnn(C)c4)ccc3=O)c2)nc1 [Example 391, 3-[3-(5-Ethylpyrimidin-2-yl)benzyl]-1-(1-methyl-1H-pyrazol-4-yl)pyridazin-4(1H)-one] |
| < 100 | CCCCc1cnc(-c2cccc(Cc3nn(-c4cnn(C)c4)ccc3=O)c2)nc1 [Example 392, 3-[3-(5-butylpyrimidin-2-yl)benzyl]-1-(1-methyl-1H-pyrazol-4-yl)pyridazin-4(1H)-one] |
| < 100 | Cn1cc(-n2ccc(=O)c(Cc3cccc(-c4ncc(C5CC5)cn4)c3)n2)cn1 [Example 393, 3-[3-(5-cyclopropyl-pyrimidin-2-yl)benzyl]-1-(1-methyl-1H-pyrazol-4-yl)pyridazin-4(1H)-one] |
| < 100 | CC(C)Cc1cnc(-c2cccc(Cc3nn(-c4cnn(C)c4)ccc3=O)c2)nc1 [Example 394, 3-{3-[5-(2-methylpropyl)pyrimidin-2-yl)benzyl}-1-(1-methyl-1H-pyrazol-4-yl)pyridazin-4(1H)-one] |
| < 100 | Cn1cc(-n2ccc(=O)c(Cc3cccc(-c4ncc(CCCO)cn4)c3)n2)cn1 [Example 395, 3-{3-[5-(3-hydroxypropyl)pyrimidin-2-yl]benzyl}-1-(1-methyl-1H-pyrazol-4-yl)pyridazin-4(1H)-one] |
| < 100 | Cn1cc(-n2ccc(=O)c(Cc3cccc(-c4ncc(Cc5ccccc5)cn4)c3)n2)cn1 [Example 396] |
| < 100 | Cn1cc(-n2ccc(=O)c(Cc3cccc(-c4ncc(CCc5ccccc5)cn4)c3)n2)cn1 [Example 397, 1-(1-methyl-1H-pyrazol-4-yl)-3-{3-[5-(2-phenylethyl)pyrimidin-2-yl]benzyl}pyridazin-4(1H)-one] |
| < 100 | Cn1cc(-n2ccc(=O)c(Cc3cccc(-c4ncc(CCc5ccccn5)cn4)c3)n2)cn1 [Example 398, 1-(1-methyl-1H-pyrazol-4-yl)-3-(3-{5-[2-(pyridin-2-yl)ethyl]pyrimidin-2-yl}benzyl)pyridazin-4(1H)-one] |
| < 100 | C=C(C)c1cnc(-c2cccc(Cc3nn(-c4cnn(C)c4)ccc3=O)c2)nc1 [Example 399, 1-(1-methyl-1H-pyrazol-4-yl)-3-{3-[5-(prop-1-en-2-yl)pyrimidin-2-yl]benzyl}pyridazin-4(1H)-one] |
| < 100 | C/C=C/c1cnc(-c2cccc(Cc3nn(-c4cnn(C)c4)ccc3=O)c2)nc1 [Example 400, 1-(1-methyl-1H-pyrazol-4-yl)-3-(3-{5-[(1E)-prop-1-en-1-yl]pyrimidin-2-yl}benzyl)pyridazin-4(1H)-one] |
| < 100 | Cn1cc(-n2ccc(=O)c(Cc3cccc(-c4ncc(/C=C/C(C)(C)O)cn4)c3)n2)cn1 [Example 401, 3-(3-{5-[(1E)-3-hydroxy-3-methylbut-1-en-1-yl]pyrimidin-2-yl}benzyl)-1-(1-methyl-1H-pyrazol-4-yl)pyridazin-4(1H)-one] |
| < 100 | COC/C=C/c1cnc(-c2cccc(Cc3nn(-c4cnn(C)c4)ccc3=O)c2)nc1 [Example 402, 3-(3-{5-[(1E)-3-methoxyprop-1-en-1-yl]pyrimidin-2-yl}benzyl)-1-(1-methyl-1H-pyrazol-4-yl)pyridazin-4(1H)-one] |
| < 100 | CN(C)C/C=C/c1cnc(-c2cccc(Cc3nn(-c4cnn(C)c4)ccc3=O)c2)nc1 [Example 403, 3-(3-{5-[(1E)-3-(dimethylamino)prop-1-en-1-yl]pyrimidin-2-yl}benzyl)-1-(1-methyl-1H-pyrazol-4-yl)pyridazin-4(1H)-one] |
| < 100 | Cn1cc(-n2ccc(=O)c(Cc3cccc(-c4ncc(-c5ccco5)cn4)c3)n2)cn1 [Example 404, 3-{3-[5-(furan-2-yl)pyrimidin-2-yl]benzyl}-1-(1-methyl-1H-pyrazol-4-yl)pyridazin-4(1H)-one] |
| < 100 | CCc1cnc(-c2cccc(Cc3nn(-c4ccc(F)c(F)c4)ccc3=O)c2)nc1 [Example 407, 1-(3,4-difluorophenyl)-3-[3-(5-ethylpyrimidin-2-yl)benzyl]pyridazin-4(1H)-one] |
| < 100 | Cn1cc(-n2ccc(=O)c(Cc3cccc(-c4ncc(-c5ccncc5)cn4)c3)n2)cn1 [Example 409, 1-(1-Methyl-1H-pyrazol-4-yl)-3-{3-[5-(pyridin-4-yl)pyrimidin-2-yl]benzyl}pyridazin-4(1H)-one] |
| < 100 | Cn1cc(-n2ccc(=O)c(Cc3cccc(-c4ncc(-c5cn[nH]c5)cn4)c3)n2)cn1 [Example 410, 1-(1-methyl-1H-pyrazol-4-yl)-3-{3-[5-(1H-pyrazol-4-yl)pyrimidin-2-yl]benzyl}pyridazin-4(1H)-one] |

| IC50 [nM] | Compound |
| --- | --- |
| < 100 | Cn1cc(-n2ccc(=O)c(Cc3cccc(-c4ncc(-c5cncnc5)cn4)c3)n2)cn1 [Example 411, 3-[3-(5,5′-bipyrimidin-2-yl)benzyl]-1-(1-methyl-1H-pyrazol-4-yl)pyridazin-4(1H)-one] |
| < 100 | Cn1cc(-n2ccc(=O)c(Cc3cccc(-c4ncc(-c5cccnc5)cn4)c3)n2)cn1 [Example 412, 1-(1-methyl-1H-pyrazol-4-yl)-3-[3-(5-pyridin-3-ylpyrimidin-2-yl)benzyl]pyridazin-4(1H)-one] |
| < 100 | Cn1cc(-n2ccc(=O)c(Cc3cccc(-c4ncc(-c5ccc(C#N)nc5)cn4)c3)n2)cn1 [Example 413, 5-[2-(3-{[1-(1-methyl-1H-pyrazol-4-yl)-4-oxo-1,4-dihydropyrida-zin-3-yl]methyl}phenyl)pyrimidin-5-yl]pyridine-2-carbonitrile] |
| < 100 | Cn1cc(-n2ccc(=O)c(Cc3cccc(-c4ncc(-c5cncc(F)c5)cn4)c3)n2)cn1 [Example 414, 3-{3-[5-(5-fluoropyridin-3-yl)pyrimidin-2-yl]benzyl}-1-(1-methyl-1H-pyrazol-4-yl)pyridazin-4(1H)-one] |
| < 100 | Cc1cnccc1-c1cnc(-c2cccc(Cc3nn(-c4cnn(C)c4)ccc3=O)c2)nc1 [Example 416, 1-(1-methyl-1H-pyrazol-4-yl)-3-{3-[5-(3-methylpyridin-4-yl)pyrimidin-2-yl]benzyl}pyridazin-4(1H)-one] |
| < 100 | Cn1cc(-n2ccc(=O)c(Cc3cccc(-c4ncc(-c5cnc(N)nc5)cn4)c3)n2)cn1 [Example 417, 3-[3-(2′-amino-5,5′-bipyrimidin-2-yl)benzyl]-1-(1-methyl-1H-pyrazol-4-yl)pyridazin-4(1H)-one] |
| < 100 | Cn1cc(-n2ccc(=O)c(Cc3cccc(-c4ncc(-c5ccc(F)cn5)cn4)c3)n2)cn1 [Example 418, 3-{3-[5-(5-fluoropyridin-2-yl)pyrimidin-2-yl]benzyl}-1-(1-methyl-1H-pyrazol-4-yl)pyridazin-4(1H)-one] |
| < 100 | Cn1cc(-n2ccc(=O)c(Cc3cccc(-c4ncc(-c5ccc(N)nc5)cn4)c3)n2)cn1 [Example 419, 3-{3-[5-(6-aminopyridin-3-yl)pyrimidin-2-yl]benzyl}-1-(1-methyl-1H-pyrazol-4-yl)pyridazin-4(1H)-one] |
| < 100 | Cn1cc(-n2ccc(=O)c(Cc3cccc(-c4ncc(-c5cc[nH]n5)cn4)c3)n2)cn1 [Example 420, 1-(1-methyl-1H-pyrazol-4-yl)-3-{3-[5-(1H-pyrazol-3-yl)pyrimidin-2-yl]benzyl}pyridazin-4(1H)-one] |
| < 100 | Cn1cc(-n2ccc(=O)c(Cc3cccc(-c4ncc(-c5ccn(C)n5)cn4)c3)n2)cn1 [Example 421, 1-(1-methyl-1H-pyrazol-4-yl)-3-{3-[5-(1-melhyl-1H-pyrazol-3-yl)pyrimidin-2-yl]benzyl}pyridazin-4(1H)-one] |
| < 100 | Cn1cc(-n2ccc(=O)c(Cc3cccc(-c4ncc(-c5cscn5)cn4)c3)n2)cn1 [Example 422, 1-(1-methyl-1H-pyrazol-4-yl)-3-{3-[5-(1,3-thiazol-4-yl)pyrimidin-2-yl]benzyl}pyridazin-4(1H)-one] |
| < 100 | Cn1cc(-n2ccc(=O)c(Cc3cccc(-c4ncc(-c5cnoc5)cn4)c3)n2)cn1 [Example 423, 3-[3-(5-isoxazol-4-ylpyrimidin-2-yl)benzyl]-1-(1-methyl-1H-pyrazol-4-yl)pyridazin-4(1H)-one] |
| 100 to 1000 | Cc1noc(C)c1-c1cnc(-c2cccc(Cc3nn(-c4cnn(C)c4)ccc3=O)c2)nc1 [Example 424, 3-{3-[5-(3,5-dimethylisoxa-zol-4-yl)pyrimidin-2-yl]benzyl}-1-(1-methyl-1H-pyrazol-4-yl)pyridazin-4(1H)-one] |
| < 100 | Cn1cc(-n2ccc(=O)c(Cc3cccc(-c4ncc(-c5ccnnc5)cn4)c3)n2)cn1 [Example 425, 1-(1-methyl-1H-pyrazol-4-yl)-3-[3-(5-pyridazin-4-ylpyrimidin-2-yl)benzyl]pyridazin-4(1H)-one] |
| < 100 | Cn1cc(-n2ccc(=O)c(Cc3cccc(-c4ncc(CN5CCOCC5)cn4)c3)n2)cn1 [Example 426, 1-(1-Methyl-1H-pyrazol-4-yl)-3-{3-[5-(morpholin-4-ylmethyl)pyrimidin-2-yl]benzyl}pyridazin-4(1H)-one] |
| 100 to 1000 | CNCc1cnc(-c2cccc(Cc3nn(-c4cnn(C)c4)ccc3=O)c2)nc1 [Example 427, 3-(3-{5-[(methylamino)methyl]pyrimidin-2-yl}benzyl)-1-(1-methyl-1H-pyrazol-4-yl)pyridazin-4(1H)-one] |
| < 100 | Cn1cc(-n2ccc(=O)c(Cc3cccc(-c4ncc(CN5CCSCC5)cn4)c3)n2)cn1 [Example 428, 1-(1-methyl-1H-pyrazol-4-yl)-3-{3-[5-(thiomorpholin-4-ylmethyl)pyrimidin-2-yl]benzyl}pyridazin-4(1H)-one] |
| < 100 | Cn1cc(-n2ccc(=O)c(Cc3cccc(-c4ncc(CN5CCCC5)cn4)c3)n2)cn1 [Example 429, 1-(1-methyl-1H-pyrazol-4-yl)-3-{3-[5-(pyrrolidin-1-ylmethyl)pyrimidin-2-yl]benzyl}pyridazin-4(1H)-one] |
